According to publication PMC8261786 (Chemical Science, 2021):

How the values were obtained:
SDS-PAGE = format: physicochemical; details: 25 μM amyloid peptide alone; for size of monomers and oligomers (SDS-PAGE): 1–2 h; for size of large aggregates (SDS-PAGE): 24 h
RIN-5fm cells [1] = test: MTT cell viability, RIN-5fm; format: cell-based, rat; details: 25 μM hIAPP, 24 h, n = 3
RIN-5fm cells [2] = test: LDH membrane leakage, RIN-5fm; format: cell-based, rat; details: 25 μM hIAPP, 24 h, n = 3
S. epidermidis = test: Bacterial growth assay, S. epidermidis; format: cell-based, Staphylococcus epidermidis (ATCC 14990); details: amyloid peptides 25 μM
SH-SY5Y cells [3] = test: MTT cell viability, SH-SY5Y; format: cell-based, human; details: 25 μM amyloid, 24 h, n = 3
SH-SY5Y cells [4] = test: LDH membrane leakage, SH-SY5Y; format: cell-based, human; details: 25 μM amyloid, 24 h, n = 3
[5] = system: E. coli, P. aeruginosa, S. aureus and S. epidermidis; test: Bacterial growth assay, four strains together; format: cell-based; details: hCT 25 μM, growth profiles

Compound | size of monomers and oligomers (SDS-PAGE) (SDS-PAGE) | size of large aggregates (SDS-PAGE) (SDS-PAGE) | cell viability, amyloid alone (RIN-5fm cells [1]) | membrane leakage (LDH activity), amyloid alone (RIN-5fm cells [2]) | susceptibility of S. epidermidis (S. epidermidis) | cell viability, amyloid alone (SH-SY5Y cells [3]) | membrane leakage (LDH activity), amyloid alone (SH-SY5Y cells [4]) | growth inhibition [5]
CC[C@H](C)[C@H](NC(=O)[C@H](C)NC(=O)CNC(=O)[C@H](Cc1ccccc1)NC(=O)[C@H](CC(N)=O)NC(=O)[C@H](CC(N)=O)NC(=O)[C@H](CO)NC(=O)[C@H](CO)NC(=O)[C@H](Cc1c[nH]cn1)NC(=O)[C@@H](NC(=O)[C@H](CC(C)C)NC(=O)[C@H](Cc1ccccc1)NC(=O)[C@H](CC(N)=O)NC(=O)[C@H](C)NC(=O)[C@H](CC(C)C)NC(=O)[C@H](CCCNC(=N)N)NC(=O)[C@H](CCC(N)=O)NC(=O)[C@@H](NC(=O)[C@H](C)NC(=O)[C@@H]1CSSC[C@H](NC(=O)[C@@H](N)CCCCN)C(=O)N[C@@H](CC(N)=O)C(=O)N[C@@H]([C@@H](C)O)C(=O)N[C@@H](C)C(=O)N[C@@H]([C@@H](C)O)C(=O)N1)[C@@H](C)O)C(C)C)C(=O)N[C@@H](CC(C)C)C(=O)N[C@@H](CO)C(=O)N[C@@H](CO)C(=O)N[C@H](C(=O)N[C@@H](CC(N)=O)C(=O)N[C@H](C(=O)NCC(=O)N[C@@H](CO)C(=O)N[C@@H](CC(N)=O)C(=O)N[C@H](C(=O)N[C@@H](Cc1ccc(O)cc1)C(N)=O)[C@@H](C)O)C(C)C)[C@@H](C)O [hIAPP, human islet amyloid polypeptide 1–37] | 5–15 kDa | > 25 kDa | 58% | 36% | not susceptible | – | – | –
CC[C@H](C)[C@H](NC(=O)[C@H](C)NC(=O)[C@@H](NC(=O)[C@H](CCC(N)=O)NC(=O)[C@@H]1CCCN1C(=O)[C@H](Cc1ccccc1)NC(=O)[C@@H](NC(=O)[C@H](Cc1c[nH]cn1)NC(=O)[C@H](Cc1ccccc1)NC(=O)[C@H](CCCCN)NC(=O)[C@H](CC(N)=O)NC(=O)[C@H](Cc1ccccc1)NC(=O)[C@H](CC(=O)O)NC(=O)[C@H](CCC(N)=O)NC(=O)[C@@H](NC(=O)[C@H](Cc1ccc(O)cc1)NC(=O)[C@@H](NC(=O)CNC(=O)[C@H](CC(C)C)NC(=O)[C@H](CCSC)NC(=O)[C@@H]1CSSC[C@H](N)C(=O)NCC(=O)N[C@@H](CC(N)=O)C(=O)N[C@@H](CC(C)C)C(=O)N[C@@H](CO)C(=O)N[C@@H]([C@@H](C)O)C(=O)N1)[C@@H](C)O)[C@@H](C)O)[C@@H](C)O)[C@@H](C)O)C(=O)NCC(=O)N[C@H](C(=O)NCC(=O)N[C@@H](C)C(=O)N1CCC[C@H]1C(N)=O)C(C)C [hCT, human calcitonin 1–32] | 5–15 kDa | > 25 kDa | – | – | not susceptible | 69% | 26% | only inhibited the growth of P. aeruginosa
